Measured values reported in PubChem BioAssay AID1259411 (Chemical Carcinogenesis Research Information System (CCRIS), 2018).
Activity calls are given as the source filed them. No rule for the calls is given here.

System: rodent carcinogenicity bioassays, tumor incidence
Experiment: CCRIS carcinogenicity studies
Summary of the method: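 Archive of carcinogenicity, mutagenicity, tumor promotion and tumor inhibition results drawn from journals, NCI reports and other sources, expert-reviewed; covers 1985-2011 and is no longer updated.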

O=C(O)c1ccc([N+](=O)[O-])cc1
carcinogen call (Species: MOUSE, Strain/Sex: B6C3F1/FEMALE, Route: ORAL, Dose: 0, 1250, 2500, 5000 PPM IN DIET FOR 103 WK (STUDY DURATION: 104 WK), Dose: 0, 1250, 2500, 5000 PPM IN DIET FOR 103 WK (STUDY DURATION: 104 WK)): inactive; negative
carcinogen call (Species: MOUSE, Strain/Sex: B6C3F1/MALE, Route: ORAL, Dose: 0, 1250, 2500, 5000 PPM IN DIET FOR 103 WK (STUDY DURATION: 104 WK), Dose: 0, 1250, 2500, 5000 PPM IN DIET FOR 103 WK (STUDY DURATION: 104 WK)): inactive; negative
carcinogen call (Species: RAT, Strain/Sex: F344/FEMALE, Route: ORAL, Dose: 0, 1250, 2500, 5000 PPM IN DIET FOR 103 WK (STUDY DURATION: 104 WK), Dose: 0, 1250, 2500, 5000 PPM IN DIET FOR 103 WK (STUDY DURATION: 104 WK), Tumor Site: Type of Lesion: CLITORAL GLAND: ADENOMA, ADENOMA OR CARCINOMA): active; positive
carcinogen call (Species: RAT, Strain/Sex: F344/MALE, Route: ORAL, Dose: 0, 1250, 2500, 5000 PPM IN DIET FOR 103 WK (STUDY DURATION: 104 WK), Dose: 0, 1250, 2500, 5000 PPM IN DIET FOR 103 WK (STUDY DURATION: 104 WK)): inactive; negative

O=C1O[C@H]([C@H](O)CO)C(O)=C1O
carcinogen call (Species: MOUSE, Strain/Sex: B6C3F1/FEMALE, Route: ORAL, Dose: 0, 2.5, 5% IN DRINKING WATER FOR 96 WK (STUDY DURATION: 110 WK), Dose: 0, 2.5, 5% IN DRINKING WATER FOR 96 WK (STUDY DURATION: 110 WK)): inactive; negative
carcinogen call (Species: MOUSE, Strain/Sex: B6C3F1/MALE, Route: ORAL, Dose: 0, 1.25, 2.5% IN DRINKING WATER FOR 96 WK (STUDY DURATION: 110 WK), Dose: 0, 1.25, 2.5% IN DRINKING WATER FOR 96 WK (STUDY DURATION: 110 WK)): inactive; negative
carcinogen call (Species: RAT, Strain/Sex: F344/FEMALE, Route: ORAL, Dose: 0, 1.25%, 2.5% IN TAP DRINKING WATER FOR 104 WK (STUDY DURATION: LIFESPAN), Dose: 0, 1.25%, 2.5% IN TAP DRINKING WATER FOR 104 WK (STUDY DURATION: LIFESPAN)): inactive; negative
carcinogen call (Species: RAT, Strain/Sex: F344/MALE, Route: ORAL, Dose: 0, 1.25%, 2.5% IN TAP DRINKING WATER FOR 104 WK (STUDY DURATION: LIFESPAN), Dose: 0, 1.25%, 2.5% IN TAP DRINKING WATER FOR 104 WK (STUDY DURATION: LIFESPAN)): inactive; negative

CC(=O)Nc1ccc2ccc3cccc4ccc1c2c34
carcinogen call (Species: RAT, Strain/Sex: STRAIN-CD/FEMALE, Route: INTRAPERITONEAL, Dose: 0, 67 UMOL/KG BW IN DMSO 3/WK FOR 4 WK (STUDY DURATION: 61 WK)): inactive; negative
carcinogen call (Species: RAT, Strain/Sex: STRAIN-CD/FEMALE, Route: INTRAPERITONEAL, Dose: 0, 67 UMOL/KG/BW IN 25 UMOL/ML DMSO 3/WK FOR 4 WK (TOTAL DOSE: 0; 119 UMOL) ADMINISTERED TO WEANLING RATS (STUDY DURATIO, Dose: 0, 67 UMOL/KG/BW IN 25 UMOL/ML DMSO 3/WK FOR 4 WK (TOTAL DOSE: 0; 119 UMOL) ADMINISTERED TO WEANLING RATS (STUDY DURATIO): inactive; negative

COC(=O)c1ccc(CNS(C)(=O)=O)cc1S(=O)(=O)NC(=O)Nc1nc(OC)cc(OC)n1
carcinogen call (Species: Mouse, Strain/Sex: CD-1/Female (60/Group), Route: Oral, Dose: 0, 13.9, 129.8, 1356 mg/kg/day of 94.6-95.3% mesosulfuron-methyl in diet for 18 mo, study duration 18 mo, Dose: 0, 13.9, 129.8, 1356 mg/kg/day of 94.6-95.3% mesosulfuron-methyl in diet for 18 mo, study duration 18 mo): inactive; negative
carcinogen call (Species: Mouse, Strain/Sex: CD-1/Male (60/Group), Route: Oral, Dose: 0, 10.6, 102.8, 1069 mg/kg/day of 94.6-95.3% mesosulfuron-methyl in diet for 18 mo, study duration 18 mo, Dose: 0, 10.6, 102.8, 1069 mg/kg/day of 94.6-95.3% mesosulfuron-methyl in diet for 18 mo, study duration 18 mo): inactive; negative
carcinogen call (Species: Rat, Strain/Sex: Hoe:WISK(SPF71)/Female (50/Group), Route: Oral, Dose: 0, 9.39, 94.7, 952.3 mg/kg/day of 94.6% mesosulfuron-methyl in diet for 24 mo, study duration 24 mo, Dose: 0, 9.39, 94.7, 952.3 mg/kg/day of 94.6% mesosulfuron-methyl in diet for 24 mo, study duration 24 mo): inactive; negative
carcinogen call (Species: Rat, Strain/Sex: Hoe:WISK(SPF71)/Male (50/Group), Route: Oral, Dose: 0, 7.46, 73.8, 764.0 mg/kg/day of 94.6% mesosulfuron-methyl in diet for 24 mo, study duration 24 mo, Dose: 0, 7.46, 73.8, 764.0 mg/kg/day of 94.6% mesosulfuron-methyl in diet for 24 mo, study duration 24 mo): inactive; negative

CC(C)(C)Br
carcinogen call (Species: MOUSE, Route: INTRAPERITONEAL, Tumor Site: Type of Lesion: LUNG): active; positive

O=[N+]([O-])c1ccc(Oc2ccc(Cl)cc2Cl)cc1
carcinogen call (Species: MOUSE, Strain/Sex: B6C3F1/FEMALE, Route: ORAL, Dose: 0, 2348, 4696 PPM IN DIET, TWA, Dose: 0, 2348, 4696 PPM IN DIET, TWA, Tumor Site: Type of Lesion: LIVER: HEPATOCELLULAR CARCINOMA OR NEOPLASTIC NODULE): active; positive
carcinogen call (Species: MOUSE, Strain/Sex: B6C3F1/FEMALE, Route: ORAL, Dose: 0, 3000, 6000 PPM IN DIET, Dose: 0, 3000, 6000 PPM IN DIET, Tumor Site: Type of Lesion: LIVER: HEPATOCELLULAR ADENOMA OR CARCINOMA): active; positive
carcinogen call (Species: MOUSE, Strain/Sex: B6C3F1/MALE, Route: ORAL, Dose: 0, 2348, 4696 PPM IN DIET, TWA, Dose: 0, 2348, 4696 PPM IN DIET, TWA, Tumor Site: Type of Lesion: LIVER: HEPATOCELLULAR CARCINOMA): active; positive
carcinogen call (Species: MOUSE, Strain/Sex: B6C3F1/MALE, Route: ORAL, Dose: 0, 3000, 6000 PPM IN DIET, Dose: 0, 3000, 6000 PPM IN DIET, Tumor Site: Type of Lesion: LIVER: HEPATOCELLULAR ADENOMA OR CARCINOMA): active; positive
carcinogen call (Species: RAT, Strain/Sex: F344/FEMALE, Route: ORAL, Dose: 0, 3000, 6000 PPM IN DIET, Dose: 0, 3000, 6000 PPM IN DIET): inactive; negative
carcinogen call (Species: RAT, Strain/Sex: F344/MALE, Route: ORAL, Dose: 0, 3000, 6000 PPM IN DIET, Dose: 0, 3000, 6000 PPM IN DIET): inactive; negative
carcinogen call (Species: RAT, Strain/Sex: OSBORNE-MENDEL/FEMALE, Route: ORAL, Dose: 0, 1300, 2600 PPM IN DIET, TWA, Dose: 0, 1300, 2600 PPM IN DIET, TWA, Tumor Site: Type of Lesion: PANCREAS: CARCINOMA): active; positive

c1ccc(Nc2ccc(Nc3ccccc3)cc2)cc1
carcinogen call (Species: RAT, Strain/Sex: F344/FEMALE, Route: ORAL, Dose: 0, 0.5, 2% IN DIET FOR 104 WK (STUDY DURATION: 112 WK), Dose: 0, 0.5, 2% IN DIET FOR 104 WK (STUDY DURATION: 112 WK)): inactive; negative
carcinogen call (Species: RAT, Strain/Sex: F344/MALE, Route: ORAL, Dose: 0, 0.5, 2% IN DIET FOR 104 WK (STUDY DURATION: 112 WK), Dose: 0, 0.5, 2% IN DIET FOR 104 WK (STUDY DURATION: 112 WK)): inactive; negative

CN(N=O)C(=O)c1c(N(C)N=O)ncn1C
carcinogen call (Species: RAT, Strain/Sex: BD-IX/MALE, FEMALE, Route: GAVAGE, Dose: 0, 6, 60 MG/KG 2/WK AFTER 2 WK HIGH DOSE REDUCED TO 30 MG/KG FOR DURATION OF STUDY (STUDY DURATION: LIFETIME), Dose: 0, 6, 60 MG/KG 2/WK AFTER 2 WK HIGH DOSE REDUCED TO 30 MG/KG FOR DURATION OF STUDY (STUDY DURATION: LIFETIME), Tumor Site: Type of Lesion: FORESTOMACH: TUMOR): active; positive

c1ccc2c(c1)ccc1cc3ccc4c(c3nc12)[C@H]1O[C@H]1CC4
carcinogen call (Species: MOUSE, Strain/Sex: CD-1/FEMALE, Route: INTRAPERITONEAL, Dose: 0, 28 NMOL (TOTAL DOSE) ADMINISTERED AS 1/7 OF DOSE WITHIN 24 HR AFTER BIRTH, 2/7 OF DOSE AT 8 D OLD, 4/7 OF DOSE AT 15, Tumor Site: Type of Lesion: LUNG: TUMOR): active; positive
carcinogen call (Species: MOUSE, Strain/Sex: CD-1/MALE, Route: INTRAPERITONEAL, Dose: 0, 28 NMOL (TOTAL DOSE) ADMINISTERED AS 1/7 OF DOSE WITHIN 24 HR AFTER BIRTH, 2/7 OF DOSE AT 8 D OLD, 4/7 OF DOSE AT 15, Tumor Site: Type of Lesion: LIVER: TUMOR, LUNG: TUMOR): active; positive

[Be]=[O]
carcinogen call (Species: RABBIT, Route: INTRAVENOUS, INTRAMEDULLARY, Tumor Site: Type of Lesion: BONE: OSTEOSARCOMA): active; positive

CC/C(=C(\c1ccc(O)cc1)c1ccc(OCCN(C)C)cc1)c1ccccc1
carcinogen call (Species: RAT, Strain/Sex: SPRAGUE-DAWLEY/FEMALE, Route: DERMAL, Dose: 0, 20, 140, 1000 UG/KG/D FOR 101 WK (STUDY DURATION: 101 WK), Dose: 0, 20, 140, 1000 UG/KG/D FOR 101 WK (STUDY DURATION: 101 WK)): inactive; negative

C=Cc1ccccn1
carcinogen call (Species: MOUSE, Strain/Sex: STRAIN-A/FEMALE, Route: INTRAPERITONEAL, Dose: 0, 10 UMOL IN 0.1 ML OLIVE OIL 3/WK FOR 20 DOSES (TOTAL DOSE: 200 UMOL) (STUDY DURATION: 27 WK)): inactive; negative
